Like-named read-outs stand apart in the source and are kept apart here.
Test system: Mycosphaerella graminicola; Anamorph: Septoria tritici; Bayer Code SEPTTR
Experiment: Leaf blotch of wheat, foliar fungicide treatment, one day protectant (1DP) or three day curative (3DC)
Assay type: in vivo, Septoria tritici on wheat plants (variety Yuma)
Details: Zymoseptoria tritici, percent control rating; for pest or weed control at 100 ppm: read-out: SEPTTR 3DC 100 ppm
[1] = 24 h, one day protectant (1DP), 25 ppm (first 1DP column), read-out: SETTTR 1DP 25 ppm
[2] = 24 h, one day protectant (1DP), 25 ppm as printed (second 1DP column), read-out: SETTTR 1DP 25 ppm
[3] = 72 h, three day curative (3DC), 25 ppm, read-out: SEPTTR 3DC 25 ppm

SMILES | pest or weed control at 25 ppm [1] [%] | pest or weed control at 25 ppm [2] [%] | pest or weed control at 25 ppm [3] [%] | pest or weed control at 100 ppm (72 h, three day curative (3DC)) [%]
Fc1ccc(COc2ncc(F)c(NNc3nc4ccccc4s3)n2)cc1 [Compound 1044] | 0 to 25 | 0 to 25 | 0 to 25 | 0 to 25
COc1cccc(COc2ncc(F)c(NNc3nccc(C(F)(F)F)n3)n2)c1 [Compound 1045] | 0 to 25 | 0 to 25 | 0 to 25 | 0 to 25
COc1cccc(COc2ncc(F)c(NNc3nc4ccccc4s3)n2)c1 [Compound 1046] | 0 to 25 | 0 to 25 | 0 to 25 | 0 to 25
Fc1ccc(COc2ncc(F)c(NNc3cccc(F)n3)n2)cc1 [Compound 1047] | 0 to 25 | 0 to 25 | 26 to 50 | 26 to 50
COc1ncc(F)c(NNc2ccc(Cl)nn2)n1 [Compound 1048] | 0 to 25 | 0 to 25 | 0 to 25 | 0 to 25
COc1ncc(F)c(NNc2nccc(C(F)(F)F)n2)n1 [Compound 1049] | 0 to 25 | 0 to 25 | 26 to 50 | 26 to 50
COc1ncc(F)c(NNc2ccccn2)n1 [Compound 1050] | 0 to 25 | 0 to 25 | 0 to 25 | 26 to 50
COc1ncc(F)c(NNc2ncnc3ccccc23)n1 [Compound 1051] | 0 to 25 | 0 to 25 | 26 to 50 | 0 to 25
COc1ncc(F)c(NNc2ccccc2OC)n1 [Compound 1052] | 0 to 25 | 0 to 25 | 0 to 25 | 0 to 25
COc1ncc(F)c(NOCc2ccco2)n1 [Compound 1053] | 0 to 25 | 0 to 25 | 0 to 25 | 0 to 25
COc1ncc(F)c(N(O)Cc2ccc(Cl)nc2)n1 [Compound 1054] | 0 to 25 | 0 to 25 | 0 to 25 | 0 to 25
COc1ncc(F)c(NNc2c(Cl)cccc2Cl)n1 [Compound 1055] | 0 to 25 | 0 to 25 | 0 to 25 | 0 to 25
CNN(C)c1nc(OC)ncc1F [Compound 1056] | 0 to 25 | 0 to 25 | 26 to 50 | 26 to 50
CONc1nc(OC)ncc1F [Compound 1058] | 0 to 25 | 0 to 25 | 0 to 25 | 0 to 25
C=CCOc1ncc(F)c(NN)n1 [Compound 1059] | 0 to 25 | 0 to 25 | 0 to 25 | 26 to 50
C=CCOc1ncc(F)c(N/N=C(\C)c2ccc(F)cc2)n1 [Compound 1060] | 0 to 25 | 0 to 25 | 0 to 25 | 0 to 25
C=CCOc1ncc(F)c(N/N=C(\C)c2ccc(Cl)s2)n1 [Compound 1061] | 26 to 50 | 0 to 25 | 0 to 25 | 0 to 25
C=CCOc1ncc(F)c(N/N=C/C2CC2)n1 [Compound 1062] | 0 to 25 | 0 to 25 | 0 to 25 | 0 to 25
C=CCOc1ncc(F)c(N/N=C/C(C)=C/C)n1 [Compound 1063] | 0 to 25 | 0 to 25 | 0 to 25 | 0 to 25
C=CCOc1ncc(F)c(N/N=C/c2ccco2)n1 [Compound 1064] | 0 to 25 | 0 to 25 | 0 to 25 | 0 to 25
COc1ncc(F)c(N(C)O)n1 [Compound 1066] | 0 to 25 | 0 to 25 | 0 to 25 | 0 to 25
COc1ncc(F)c(N(O)C(C)C)n1 [Compound 1067] | 0 to 25 | 0 to 25 | 0 to 25 | 0 to 25
CN(Cc1ccc(Cl)cc1)c1nc(O)ncc1F [Compound 1068] | 0 to 25 | 0 to 25 | 0 to 25 | 0 to 25

SMILES | pest or weed control at 25 ppm [1] [%] | pest or weed control at 25 ppm [2] [%] | pest or weed control at 25 ppm [3] [%] | pest or weed control at 100 ppm (72 h, three day curative (3DC)) [%]
Cc1ccc(CN(C)c2nc(O)ncc2F)cc1 [Compound 1069] | 0 to 25 | 0 to 25 | 51 to 75 | 51 to 75
COc1ccccc1CN(C)c1nc(O)ncc1F [Compound 1070] | 26 to 50 | 0 to 25 | 0 to 25 | 0 to 25
CN(Cc1ccc(C(F)(F)F)cc1)c1nc(O)ncc1F [Compound 1071] | 0 to 25 | 26 to 50 | 26 to 50 | 26 to 50
C=CCOc1ncc(F)c(NOCC)n1 [Compound 1072] | 0 to 25 | 0 to 25 | 0 to 25 | 0 to 25
COc1ncc(F)c(NOCc2ccc([N+](=O)[O-])cc2)n1 [Compound 1073] | 26 to 50 | 0 to 25 | 0 to 25 | 0 to 25
C=CCOc1ncc(F)c(NNc2cc(C)ccc2C)n1 [Compound 1074] | 0 to 25 | 0 to 25 | 0 to 25 | 26 to 50
C=CCOc1ncc(F)c(NO[Si](C)(C)C(C)(C)C)n1 [Compound 1075] | 0 to 25 | 0 to 25 | 0 to 25 | 0 to 25
COc1ccc(CONc2nc(OC)ncc2F)cc1 [Compound 1076] | 0 to 25 | 0 to 25 | 0 to 25 | 26 to 50
C=CCOc1ncc(F)c(NNc2ccccc2F)n1 [Compound 1077] | 0 to 25 | 0 to 25 | 0 to 25 | 26 to 50
C=CCOc1ncc(F)c(NNc2ccc(Br)cc2)n1 [Compound 1078] | 0 to 25 | 0 to 25 | 26 to 50 | 0 to 25
COc1ncc(F)c(NO[Si](C)(C)C(C)(C)C)n1 [Compound 1079] | 0 to 25 | 0 to 25 | 0 to 25 | 0 to 25
COc1ncc(F)c(N(O)Cc2ccccc2)n1 [Compound 1080] | 0 to 25 | 0 to 25 | 26 to 50 | 26 to 50
COc1ncc(F)c(NOCCOc2ccccc2)n1 [Compound 1081] | 0 to 25 | 0 to 25 | 0 to 25 | 0 to 25
Oc1ncc(F)c(NCOCc2ccccc2)n1 [Compound 1082] | 0 to 25 | 0 to 25 | 0 to 25 | 0 to 25
CC(=O)OCOc1ncc(F)c(/N=C/N(C)C)n1 [Compound 1083] | 76 to 100 | 76 to 100 | 76 to 100 | 76 to 100
CN(C)/C=N/c1nc(OCOC(=O)C2CCCC2)ncc1F [Compound 1084] | 76 to 100 | 76 to 100 | 76 to 100 | 76 to 100
CN(C)/C=N/c1nc(OCOC(=O)c2ccccc2)ncc1F [Compound 1085] | 76 to 100 | 76 to 100 | 76 to 100 | 76 to 100
C=CCOc1ncc(F)c(NNc2cccc(F)n2)n1 [Compound 1086] | 0 to 25 | 0 to 25 | 0 to 25 | 0 to 25
C=CCOc1ncc(F)c(NOCc2ccccc2)n1 [Compound 1087] | 0 to 25 | 0 to 25 | 0 to 25 | 0 to 25
C=CCOc1ncc(F)c(N(O)Cc2ccccc2)n1 [Compound 1088] | 0 to 25 | 26 to 50 | 0 to 25 | 0 to 25
Cc1ccc(COc2ncc(F)c(/N=N/c3cc(C)ccc3C)n2)cc1 [Compound 1089] | 0 to 25 | 0 to 25 | 26 to 50 | 26 to 50
Fc1ccc(COc2ncc(F)c(/N=N/c3ccc(Cl)c(Cl)c3)n2)cc1 [Compound 1090] | 0 to 25 | 0 to 25 | 26 to 50 | 26 to 50
CC(C)(C)NNc1nc(O)ncc1F [Compound 1092] | 0 to 25 | 26 to 50 | 0 to 25 | 26 to 50

Source: patent US9204653B2, “5-fluoro pyrimidine derivatives” (DOW AGROSCIENCES LLC, priority 2008, dated 2015)
